According to US20130267485A1, “Pharmaceutical Combination of Resveratrol and Progestin to Treat and/or Prevent Myoma and/or Endometriosis” (LIBBS FARMACEUTICA LTDA., priority 2010, published 2013):

Tests used:
[1] = tested on: patients with intramural myoma, adenomyosis and endometriosis; assay: Uterus volume before and after treatment, 30 patients (plus comparative resveratrol-only patients); assay type: in vivo, human
Experimental: An experiment was carried out with 30 patients treated with combinations of drospirenone, ethinyl estradiol and resveratrol, as well as with combinations of gestinol and resveratrol, evaluating the volume of the uterus before and after the treatment. In the comparative studies with three patients A, B and C, showing intramural myoma treated only with resveratrol, there was observed a 32% increase for patient A, treated during 12 months; 27% increase for patient B, treated during 3 months; and 22% increase for patient C, treated during 1 month.

[2] = tested on: stromal cells extracted from human endometrium tissue; assay: Antiproliferative activity, MTT colorimetric method; assay type: cell-based
Experimental: Negative control: stromal cells of endometrioma incubated with 200 μL of culture medium supplemented with 10% fetal bovine serum and 0.1% DMSO. After calculating the concentrations, the test substances were diluted in 100% DMSO, with stock solution concentrations being of 1 mM to ethinyl estradiol and 10 mM to Dienogest, Resveratrol and Danazol. The use solution was obtained by 1:10 serial dilutions in culture medium supplemented with 10% of fetal bovine serum and 1% of antibiotic/antimycotic. The final concentration of DMSO in the solutions was 0.1%. Endometrium tissues were obtained from 2 voluntary donors by means of videolaparoscopy, by signing the respective terms of consent and ages between 18 and 45 years. A fragment was taken from tissue samples for histological confirmation of endometriosis and the remaining was packaged in sterile flask containing culture medium DMEM/Ham's F12 (Gibco®) with ampicillin and streptomycin (Merck®) antibiotics, and they were taken immediately to the laboratory. […] The resulting suspension was centrifuged and re-suspended in culture medium, and it was then transferred to a 25 cm^2 culture bottle. The purity of cell cultures was tested by immunocytochemistry using rabbit anti-human vimentin monoclonal primary antibody (Spring Bioscience TM) and rabbit anti-IgG secondary polyclonal antibody from goat labeled with Texas Red (Invitrogen®). The cells were maintained and amplified in DMEM/Ham's F12 (Gibco®) 10% FBS medium, with […] of antibiotics ampicillin and streptomycin in culture bottle until reaching the sub-confluence (90% of confluence), and then they were transferred to 96-well plates for conducting the tests for assessing antiproliferative activity. Cells were transferred to 96-well plates to a density of 10,000 cells per well in culture medium with 10% of SBF and incubated during 48 hours. […] Then, MTT tetrazolium salt was added (Invitrogen) at a concentration of 1 mg/mL, according to the incubation periods described in the manufacturer's manual. Cell proliferation was indirectly evaluated using the MTT colorimetric method (Invitrogen) and absorbance measurement at 540 nm in SpectraMax M2 plate reader-Molecular Devices with SoftMax […].2 software. By following this procedure, results of antiproliferative activity. of drugs on cells can be obtained. Data were calculated with the ratio of values obtained from cultures exposed (and in different concentrations, combined or not) and cultures not exposed to drugs. The reference of 100% of cell viability, cells cultured without the presence of drugs, was considered.

SMILES: Oc1ccc(/C=C/c2cc(O)cc(O)c2)cc1 [Resveratrol, trans-3,5,4″-trihidroxystilbene]
- increase (intramural myoma, treated only with resveratrol) ([1]; patient A, treated during 12 months): 32%
- increase (intramural myoma, treated only with resveratrol) ([1]; patient B, treated during 3 months): 27%
- increase (intramural myoma, treated only with resveratrol) ([1]; patient C, treated during 1 month): 22%
- Proliferation ([2]; resveratrol alone 1.980 ng/mL, 100% = cells without drugs): 94.8%
- Proliferation ([2]; resveratrol alone 19.800 ng/mL, 100% = cells without drugs): 90.6%
- Proliferation ([2]; resveratrol alone 197.970 ng/mL (concentration used in the combination)): 94.7%
- Proliferation ([2]; resveratrol alone 1979.130 ng/mL): 93.3%
- Proliferation ([2]; resveratrol alone 19797.13 ng/mL): 91.1%
